Measurements published in US20170280720A1, “ARGININE […] INHIBITORS AND USES THEREOF” (EPIZYME, INC., priority 2014, published 2017).

Molecular target: PRMT5 (Homo sapiens, UniProt O14744)
Test: PRMT5 IC50 (Table 2; no method described)
Type: biochemical
Conditions: read-out: PRMT5_ IC50

Chain of PRMT5 (O14744 whole entry, species assumed): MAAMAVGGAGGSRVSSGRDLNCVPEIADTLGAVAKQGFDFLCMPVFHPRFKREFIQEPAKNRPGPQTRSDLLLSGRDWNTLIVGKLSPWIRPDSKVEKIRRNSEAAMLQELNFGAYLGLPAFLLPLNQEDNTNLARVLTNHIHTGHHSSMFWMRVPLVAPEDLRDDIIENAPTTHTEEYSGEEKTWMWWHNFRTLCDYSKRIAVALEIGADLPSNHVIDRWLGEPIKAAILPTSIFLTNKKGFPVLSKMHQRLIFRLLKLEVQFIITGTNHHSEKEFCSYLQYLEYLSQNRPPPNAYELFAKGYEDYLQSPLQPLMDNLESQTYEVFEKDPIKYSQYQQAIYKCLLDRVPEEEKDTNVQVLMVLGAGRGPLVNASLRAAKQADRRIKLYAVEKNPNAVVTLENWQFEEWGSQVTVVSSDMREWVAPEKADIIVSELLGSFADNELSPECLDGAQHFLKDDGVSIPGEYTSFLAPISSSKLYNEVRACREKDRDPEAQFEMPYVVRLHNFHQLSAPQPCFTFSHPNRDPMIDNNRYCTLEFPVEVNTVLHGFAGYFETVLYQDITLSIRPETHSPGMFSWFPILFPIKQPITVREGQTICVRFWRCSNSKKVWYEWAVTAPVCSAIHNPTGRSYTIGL
Chain of PRMT5 (Q9BQA1 whole entry partner, species assumed): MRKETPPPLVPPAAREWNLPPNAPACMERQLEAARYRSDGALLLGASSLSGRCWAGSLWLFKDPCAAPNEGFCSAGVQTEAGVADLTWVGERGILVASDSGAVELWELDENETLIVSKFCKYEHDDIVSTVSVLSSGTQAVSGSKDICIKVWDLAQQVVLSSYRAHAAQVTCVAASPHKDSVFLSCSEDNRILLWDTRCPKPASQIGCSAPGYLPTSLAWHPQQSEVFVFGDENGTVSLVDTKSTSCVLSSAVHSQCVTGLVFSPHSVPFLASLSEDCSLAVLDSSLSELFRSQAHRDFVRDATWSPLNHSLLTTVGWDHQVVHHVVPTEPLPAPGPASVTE

IC50	SMILES
22.5 µM	Cc1c(C(=O)NCc2ccccc2)cc(-c2ccc(CN(C)CCN)cc2)c2cn[nH]c12 [Compound 7]
16 µM	COc1cccc(Cn2cnc3ccc(-c4ccc(CN(C)CCN)cc4)cc32)c1 [Compound 8]
0.421 µM	NCCNCc1ccc(-c2ccc3ncn(CC4CCNCC4)c3c2)cc1 [Compound 70]
50 µM	CNCCN(C)Cc1cccc(-c2ccc3cnn(C(C)C)c3n2)c1 [Compound 73]
0.161 µM	COc1ccccc1Cn1cnc2ccc(-c3ccc(CNCCN)cc3)cc21 [Compound 80]
0.321 µM	NCCNCc1ccc(-c2ccc3ncn(CC4CCCNC4)c3c2)cc1 (stereo not shown) [Compound 81]
0.236 µM	Cc1ccccc1Cn1cnc2ccc(-c3ccc(CNCCN)cc3)cc21 [Compound 82]
27.7 µM	CC(C)n1ncc2c(NC(=O)OCc3ccccc3)cc(-c3cccc(CN(C)CCN)c3)nc21 [Compound 84]
0.0888 µM	COc1cccc(CCn2cnc3ccc(-c4ccc(CNCCN)cc4)cc32)c1 [Compound 94]
200 µM	CNCCN(C)Cc1cccc(-c2cc(N(C)C3CC3)c3cnn(C(C)C)c3n2)c1 [Compound 95]
0.0659 µM	Cc1ccc(Cn2cnc3ccc(-c4ccc(CNCCN)cc4)cc32)cc1 [Compound 97]
50 µM	CNCCN(C)Cc1cccc(-c2ccc3cnn(C(C)C)c3c2)c1 [Compound 100]
0.1 µM	NCCNCc1ccc(-c2ccc3ncn(Cc4ccc(C(=O)N5CCCC5)cc4)c3c2)cc1 [Compound 104]
0.178 µM	Cc1cccc(-n2cnc3ccc(-c4ccc(CNCCN)cc4)cc32)c1 [Compound 106]
0.273 µM	COc1cccc(-n2cnc3ccc(-c4ccc(CNCCN)cc4)cc32)c1 [Compound 110]
0.343 µM	COc1ccccc1-c1nc2ccc(-c3ccc(CNCCN)cc3)cc2[nH]1 [Compound 115]

Test system: asymmetric di-methyl PABP1 in RKO cells
Test: In Cell Western (ICW) for asymmetric di-methyl PABP1 and DNA content in RKO cells
Type: cell-based
Conditions: Homo sapiens, RKO, In Cell Western
How it was run: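 RKO cells treated with compound for 48 h at 37 °C, then fixed, methanol-permeabilized and stained for asymmetric di-methyl PABP1 (800 nm) with DRAQ5 DNA stain (700 nm). Signal ratio normalized to DMSO and 20 μM reference-compound controls. IC50 from nine 3-fold dilutions in triplicate.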

SMILES	IC50
CNCCN(C)Cc1cccc(-c2cc(-c3cnn(C)c3)c3cnn(C(C)C)c3n2)c1 [Compound 49, N1-(3-(1-isopropyl-4-(1-methyl-1H-pyrazol-4-yl)-1H-pyrazolo[3,4-b]pyridin-6-yl)benzyl)-N1,N2-dimethylethane-1,2-diamine]	1.29 µM
CCOc1cc(-c2cccc(CN(C)CCNC)c2)nc2c1cnn2C(C)C [Compound 53]	3.47 µM
CC(C)n1ncc2c(C(=O)NCc3ccccc3Cl)cc(-c3cccc(CN(C)CCN)c3)nc21 [Compound 54]	20 µM
CNCCN(C)Cc1cccc(-c2cc(C(=O)N3CCCCC3)c3cnn(C(C)C)c3n2)c1 [Compound 56]	16.8 µM
CCNc1cc(-c2cccc(CN(C)CCNC)c2)nc2c1cnn2C(C)C [Compound 72]	5.36 µM
CNCCN(C)Cc1cccc(-c2ccc3cnn(C(C)C)c3n2)c1 [Compound 73]	20 µM
CCOC(=O)c1cc(-c2cccc(CN(C)CCNC)c2)nc2c1cnn2C(C)C [Compound 78]	13 µM
CNCCN(C)Cc1cccc(-c2cc(N3CCC3)c3cnn(C(C)C)c3n2)c1 [Compound 79]	20 µM
CC(C)n1ncc2c(NC(=O)OCc3ccccc3)cc(-c3cccc(CN(C)CCN)c3)nc21 [Compound 84]	13.3 µM
CNCCN(C)Cc1cccc(-c2cc(NC(=O)NC(C)C)c3cnn(C(C)C)c3n2)c1 [Compound 85]	2.58 µM
CNCCN(C)Cc1cccc(-c2cc(C(=O)NCc3ccccn3)c3cnn(C(C)C)c3n2)c1 [Compound 98]	1.6 µM
CNCCN(C)Cc1cccc(-c2cc(C(=O)NCc3cc(C)nn3C)c3cnn(C(C)C)c3n2)c1 [Compound 120]	1.53 µM
CNCCN(C)Cc1cccc(-c2cc(NC)c3cnn(C(C)C)c3n2)c1 [Compound 121]	7.45 µM
CNCCN(C)Cc1cccc(-c2cc(NC(=O)N(C)C)c3cnn(C(C)C)c3n2)c1 [Compound 123]	4.78 µM
CNCCN(C)Cc1cccc(-c2cc(OC)c3cnn(C(C)C)c3n2)c1 [Compound 124]	17.8 µM

The remaining lines, values ahead:

IC50	SMILES
20 µM	CN(CCN)Cc1cccc(-c2nc(NCc3cn4ccsc4n3)c3cnn(C4CC4)c3n2)c1 [Compound 5]
0.39 µM	CNCCN(C)Cc1cccc(-c2nc(NCc3cn4ccsc4n3)c3cnn(C4CC4)c3n2)c1 [Compound 6]
20 µM	CNCCN(C)Cc1cccc(-c2nc(NCc3ccccn3)c3cnn(C4CC4)c3n2)c1 [Compound 9]
5.39 µM	CNCCN(C)Cc1cccc(-c2cc(N3CCC(OC)CC3)c3cnn(C(C)C)c3n2)c1 [Compound 51]
4.81 µM	CNCCN(C)Cc1cccc(-c2cc(N3CCCC(C#N)C3)c3cnn(C(C)C)c3n2)c1 (stereo not shown) [Compound 55]
20 µM	CNCCN(C)Cc1cccc(-c2nc(NCc3cnn(C)c3C)c3cnn(C4CC4)c3n2)c1 [Compound 57]
3.2 µM	CNCCN(C)Cc1cccc(-c2cc(NC3COC3)c3cnn(C(C)C)c3n2)c1 [Compound 58]
15.5 µM	CC(C)n1cc2c(Cl)cc(-c3cccc(CN(C)CCN)c3)nc2n1 [Compound 59]
5.66 µM	CC(C)n1ncc2c(N3CCOCC3)cc(-c3cccc(CN(C)CCN)c3)nc21 [Compound 61, N1-(3-(1-isopropyl-4-morpholino-1H-pyrazolo[3,4-b]pyridin-6-yl)benzyl)-N1-methylethane-1,2-diamine]
20 µM	CN(CCN)Cc1cccc(-c2nc(NCc3ccncc3)c3cnn(C4CC4)c3n2)c1 [Compound 66]
11 µM	COC(=O)Nc1cc(-c2cccc(CN(C)CCN)c2)nc2c1cnn2C(C)C [Compound 71]
20 µM	CNCCN(C)Cc1cccc(-c2cc(C#N)c3cnn(C(C)C)c3n2)c1 [Compound 74]
1.63 µM	CNCCN(C)Cc1cccc(-c2cc(NC3CCOCC3)c3cnn(C(C)C)c3n2)c1 [Compound 76]
3.46 µM	CC(C)NC(=O)Nc1cc(-c2cccc(CN(C)CCN)c2)nc2c1cnn2C(C)C [Compound 86]
2.17 µM	CNCCN(C)Cc1cccc(-c2cc(C(=O)NC3CCOCC3)c3cnn(C4CC4)c3n2)c1 [Compound 87]
1.65 µM	CNCCN(C)Cc1cccc(-c2cc(N3CCC(C#N)CC3)c3cnn(C(C)C)c3n2)c1 [Compound 93]
6.8 µM	CNCCN(C)Cc1cccc(-c2cc(N(C)C3CC3)c3cnn(C(C)C)c3n2)c1 [Compound 95]
12.5 µM	CN(CCN)Cc1cccc(-c2nc(NC3CC3)c3cnn(C4CC4)c3n2)c1 [Compound 96]
1.54 µM	CNCCN(C)Cc1cccc(-c2nc(N3CCOCC3)c3cnn(C(C)C)c3n2)c1 [Compound 99]
6.31 µM	CC(C)n1ncc2c(NC3CCOCC3)cc(-c3cccc(CN(C)CCN)c3)nc21 [Compound 101]
10.9 µM	CNCCN(C)Cc1cccc(-c2cc(OC3CCOC3)c3cnn(C(C)C)c3n2)c1 (stereo not shown) [Compound 102]
10.3 µM	CNCCN(C)Cc1cccc(-c2cc(N(C)C)c3cnn(C(C)C)c3n2)c1 [Compound 103]
1.36 µM	CNCCN(C)Cc1cccc(-c2cc(C(=O)NCC3CCOCC3)c3cnn(C(C)C)c3n2)c1 [Compound 105]
11.8 µM	CC(C)n1ncc2c(NS(=O)(=O)N(C)C)cc(-c3cccc(CN(C)CCN)c3)nc21 [Compound 107]
1.13 µM	CC(C)n1ncc2c(C(=O)NCC3CCOCC3)cc(-c3cccc(CN(C)CCN)c3)nc21 [Compound 108]
10.7 µM	CNCCN(C)Cc1cccc(-c2nc(N(C)C3CCOCC3)c3cnn(C4CC4)c3n2)c1 [Compound 109, N1-(3-(1-cyclopropyl-4-(methyl(tetrahydro-2H-pyran-4-yl)amino)-1H-pyrazolo[3,4-d]pyrimidin-6-yl)benzyl)-N1,N2-dimethylethane-1,2-diamine]
11.9 µM	CCS(=O)(=O)Nc1cc(-c2cccc(CN(C)CCN)c2)nc2c1cnn2C(C)C [Compound 111]
20 µM	CNCCN(C)Cc1cccc(-c2nc(NC3CC3)c3cnn(C4CC4)c3n2)c1 [Compound 114]
2.62 µM	CC(C)n1ncc2c(NC(=O)N(C)C)cc(-c3cccc(CN(C)CCN)c3)nc21 [Compound 116]
1.37 µM	CN(CCN)Cc1cccc(-c2nc(N(C)C3CCOCC3)c3cnn(C4CC4)c3n2)c1 [Compound 119]
